Assay results: US20230248723A1, “PYRROLO[2,3-B]PYRAZINE COMPOUNDS AS CCCDNA INHIBITORS FOR THE TREATMENT OF HEPATITIS B VIRUS (HBV) INFECTION” (Hoffmann-La Roche Inc., priority 2017, published 2023)
Like-named read-outs stand apart in the source and are kept apart here.

How the values were obtained:
Assay type in all cases: cell-based
pgRNA = pgRNA assay (branched DNA), HBV-infected PHH; details: Hepatitis B virus
Experimental: Fresh primary human hepatocytes (PXB-PHH) harvested from humanized mice (uPA/SCID mice)—herein called PHH—were obtained from PhoenixBio Co., Ltd (Japan). Cells were seeded on a collagen I-coated plate at the following cell density: 35,000 cells/well (384-well), 70,000 cells/well (96-well), or, 400,000 cells/well (24-well) in modified hepatocyte clonal growth medium (dHCGM). dHCGM is a DMEM medium containing 100 U/ml Penicillin, 100 μg/ml Streptomycin, 20 mM Hopes, 44 mM NaHCO3, 15 μg/ml L-proline, 0.25 μg/ml insulin, 50 nM Dexamethazone, 5 ng/ml EGF, 0.1 mM Asc-2P, 2% DMSO and 10% FBS (Ishida et al., 2015). Cells were cultured at 37° C. incubator in a humidified atmosphere with 5% CO2. Culture medium was replaced 24 h post-plating and every 2 days until harvest.
Following 4 day of maturation with 1 μM MB-1, HLC were incubated with HBV (purified from CHB individuals) at multiplicity of infection (MOI) 10-40 without PEG for 24 hr; virus inoculum was removed the following day. […] Compound treatment in HLC and PHH was started at day 3 post infection. Compound (in powder) was dissolved in DMSO; the final concentration of DMSO added to cells is 1%. Fresh compound was replenished every 2 day until cells were harvested at day 10 (PHH), or day 14 (HLC). Compound effect on HBV and cellular toxicity was measured by multiplex assay (HBsAg, HBeAg, albumin), branched DNA (pgRNA), or digital PCR (cccDNA) and depicted as % of inhibition compared to DMSO control. Graphs were prepared using Spotfire software.
Levels of pgRNA in infected cells (96-well plate) were measured using QuantiGene Singleplex 2.0 assay (Affymetrix), a hybridization-based assay that utilizes the xMAP™ Luminex magnetic beads and branched DNA (bDNA) signal amplification technology. The assay is performed in 96-well plate according to manufacturer's recommendation. Briefly, cells were lysed and lysates were incubated with HBV probe sets panel at 50-55° C. for 30 min then stored at −80° C. Signal amplification is achieved via sequential hybridization of PreAmplifier, Amplifier, and Label Probe. After adding Streptavidin phycoerythrin (SAPE) substrate, the signal is read using a FlexMap 3D (Luminex) instrument.

[1] = tested on: albumin (secreted, cellular toxicity marker); test: Albumin (in vitro tox), HepaRG; details: human
Experimental: Following 4 day of maturation with 1 μM MB-1, HLC were incubated with HBV (purified from CHB individuals) at multiplicity of infection (MOI) 10-40 without PEG for 24 hr; virus inoculum was removed the following day. HBV infection in PHH was performed at MOI 40+4% PEG. Compound treatment in HLC and PHH was started at day 3 post infection. Compound (in powder) was dissolved in DMSO; the final concentration of DMSO added to cells is 1%. Fresh compound was replenished every 2 day until cells were harvested at day 10 (PHH), or day 14 (HLC). Compound effect on HBV and cellular toxicity was measured by multiplex assay (HBsAg, HBeAg, albumin), branched DNA (pgRNA), or digital PCR (cccDNA) and depicted as % of inhibition compared to DMSO control. Graphs were prepared using Spotfire software.
A custom, Luminex-based multiplex assay that simultaneously measured HBeAg, albumin, and HBsAg was developed by Radix BioSolutions (Georgetown, Tex.). This is a sandwich immunoassay; each capture antibody was coupled with xMAP™ Luminex magnetic beads. […] Samples were read on FlexMAP 3D (Luminex) and analyzed by Genedata software.
Most of HBV in vitro studies, including evaluation of compound antiviral activity, are performed in hepatoma cell lines (HepaRG or HepG2-NTCP) infected with cell culture-derived HBV (e.g. HepG2.2.15-derived virus, GT D). […] To address the first question, PHH (in 384-well plate) were infected with four clinical HBV isolates (GT A-D, at MOI 40). […] Most HBV in vitro studies are performed in hepatoma cell lines (e.g. HepaRG or HepG2 cell lines) utilizing HepG2-derived HBV as the virus inoculum.

HBsAg = test: HBsAg, HBV-infected HepaRG; details: Hepatitis B virus
cccDNA = cccDNA (digital PCR), HBV-infected HepaRG; details: for IC50: Hepatitis B virus

Compound `O=C(NC(CO)CO)c1c[nH]c2ncc(C3CC3)nc12` [compound 7] has an IC50 (pgRNA; 240 h, patient-derived HBV GT A, MOI 40, day 10 pi, read-out: pgRNA IC50 (μM) Median) of 3.58 µM, an IC50 (pgRNA; 240 h, patient-derived HBV GT B, MOI 40, day 10 pi, read-out: pgRNA IC50 (μM) Median) of 3.13 µM and an IC50 (pgRNA; 240 h, patient-derived HBV GT C, MOI 40, day 10 pi, read-out: pgRNA IC50 (μM) Median) of 1.64 µM. For the same compound, the IC50 (pgRNA; 240 h, patient-derived HBV GT D, MOI 40, day 10 pi (Table 5), read-out: pgRNA IC50 (μM) Median) was 1.35 µM, the IC50 (pgRNA; HepG2.2.15-derived HBV GT D, MOI 40, read-out: pgRNA IC50 (μM) Median) was 12.8 µM and the IC50 (pgRNA; HepG2.2.15-derived HBV GT D, MOI 125, read-out: pgRNA IC50 (μM) Median) was 11.3 µM. The IC50 (pgRNA; patient-derived HBV GT D, MOI 40 (Table 6), read-out: pgRNA IC50 (μM) Median) was 1.48 µM, the IC50 (pgRNA; patient-derived HBV GT D, MOI 125, read-out: pgRNA IC50 (μM) Median) was 2.87 µM and the IC50 (pgRNA; patient-derived HBV, read-out: pgRNA IC50) was 1.48 µM. The IC50 ([1]; HepG2.2.15-derived HBV GT D, MOI 40, read-out: In vitro tox albumin IC50 (μM) Median) was 24.9 µM, the IC50 ([1]; HepG2.2.15-derived HBV GT D, MOI 125, read-out: In vitro tox albumin IC50 (μM) Median) was 26.6 µM and the IC50 ([1]; HepaRG cells infected with HBV, patient-derived HBV GT D, MOI 40, read-out: In vitro tox albumin IC50 (μM) Median) was 23.4 µM. For the same compound, the IC50 ([1]; HepaRG cells infected with HBV, patient-derived HBV GT D, MOI 125, read-out: In vitro tox albumin IC50 (μM) Median) was 25.7 µM, the IC50 (HBsAg; read-out: HBsAg IC50 (μM) Median, HepaRG, HepG2.2.15-derived HBV GT D, MOI 40) was 9.01 µM and the IC50 (HBsAg; read-out: HBsAg IC50 (μM) Median, HepaRG, HepG2.2.15-derived HBV GT D, MOI 125) was 10.3 µM. It also gave an IC50 (HBsAg; read-out: HBsAg IC50 (μM) Median, HepaRG, patient-derived HBV GT D, MOI 40) of 0.67 µM, an IC50 (HBsAg; read-out: HBsAg IC50 (μM) Median, HepaRG, patient-derived HBV GT D, MOI 125) of 0.88 µM and an IC50 (cccDNA; HepG2.2.15-derived HBV GT D, MOI 40, read-out: cccDNA IC50 (μM) Median) of 25.9 µM. For the same compound, the IC50 (cccDNA; HepG2.2.15-derived HBV GT D, MOI 125, read-out: cccDNA IC50 (μM) Median) was 27.2 µM, the IC50 (cccDNA; patient-derived HBV GT D, MOI 125, read-out: cccDNA IC50 (μM) Median) was 7.05 µM and the “cccDNA IC50 (μM) Median” value (cccDNA; patient-derived HBV GT D, MOI 40) was “below LLOQ”.
